Assay results reported in doi:10.1101/2025.10.24.684310v1 (biorxiv, 2025).

Columns and labels:
in vitro [1] = conditions: PAMPA
in vitro [2] = conditions: human, liver microsomes
hERG = hERG (Homo sapiens, UniProt Q12809, species not given); experiment: hERG channel inhibition; type: cell-based
in vitro [3] = conditions: human, liver microsomes; remark: listed apart in the source
in vitro [4] = conditions: human, liver microsomes; remark: listed apart in the source
in vitro [5] = conditions: PAMPA; remark: listed apart in the source
CYP1A2 = molecular target: T1, CYP1A2 (Homo sapiens, UniProt P05177); experiment: in vitro
T1 sequence (P05177 1-516): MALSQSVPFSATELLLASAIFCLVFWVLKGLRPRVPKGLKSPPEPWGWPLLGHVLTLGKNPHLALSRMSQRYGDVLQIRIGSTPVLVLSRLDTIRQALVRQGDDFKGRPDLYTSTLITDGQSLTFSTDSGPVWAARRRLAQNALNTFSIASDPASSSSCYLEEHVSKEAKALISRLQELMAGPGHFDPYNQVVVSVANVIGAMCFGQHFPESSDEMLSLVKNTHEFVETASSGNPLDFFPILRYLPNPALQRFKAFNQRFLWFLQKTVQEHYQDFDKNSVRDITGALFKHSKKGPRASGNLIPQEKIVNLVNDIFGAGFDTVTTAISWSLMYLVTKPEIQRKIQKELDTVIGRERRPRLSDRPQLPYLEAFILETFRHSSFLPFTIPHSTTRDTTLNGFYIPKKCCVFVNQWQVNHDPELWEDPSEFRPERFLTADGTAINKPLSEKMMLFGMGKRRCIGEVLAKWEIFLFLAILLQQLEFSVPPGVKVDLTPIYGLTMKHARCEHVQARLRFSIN

CYP2C19 = CYP2C19 (Homo sapiens, UniProt P33261); experiment: in vitro
CYP2C9 = CYP2C9 (Homo sapiens, UniProt P11712); experiment: in vitro
CYP2D6 = CYP2D6 (Homo sapiens, UniProt P10635); experiment: in vitro
Sequence of CYP2D6 (P10635 whole entry): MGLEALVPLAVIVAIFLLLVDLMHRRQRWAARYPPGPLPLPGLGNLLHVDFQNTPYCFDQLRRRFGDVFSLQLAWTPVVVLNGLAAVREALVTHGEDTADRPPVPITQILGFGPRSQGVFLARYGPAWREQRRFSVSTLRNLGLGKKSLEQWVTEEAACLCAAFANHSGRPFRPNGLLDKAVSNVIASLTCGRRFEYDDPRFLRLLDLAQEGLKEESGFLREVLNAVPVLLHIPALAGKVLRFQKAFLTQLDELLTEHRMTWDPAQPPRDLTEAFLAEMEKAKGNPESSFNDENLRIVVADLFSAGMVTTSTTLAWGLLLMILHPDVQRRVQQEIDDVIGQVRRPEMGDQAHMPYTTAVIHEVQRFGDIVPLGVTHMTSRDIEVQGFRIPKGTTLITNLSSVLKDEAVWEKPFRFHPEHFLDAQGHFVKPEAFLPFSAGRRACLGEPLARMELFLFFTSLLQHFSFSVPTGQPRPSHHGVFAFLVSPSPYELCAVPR

Sequence of hERG (Q12809 whole entry): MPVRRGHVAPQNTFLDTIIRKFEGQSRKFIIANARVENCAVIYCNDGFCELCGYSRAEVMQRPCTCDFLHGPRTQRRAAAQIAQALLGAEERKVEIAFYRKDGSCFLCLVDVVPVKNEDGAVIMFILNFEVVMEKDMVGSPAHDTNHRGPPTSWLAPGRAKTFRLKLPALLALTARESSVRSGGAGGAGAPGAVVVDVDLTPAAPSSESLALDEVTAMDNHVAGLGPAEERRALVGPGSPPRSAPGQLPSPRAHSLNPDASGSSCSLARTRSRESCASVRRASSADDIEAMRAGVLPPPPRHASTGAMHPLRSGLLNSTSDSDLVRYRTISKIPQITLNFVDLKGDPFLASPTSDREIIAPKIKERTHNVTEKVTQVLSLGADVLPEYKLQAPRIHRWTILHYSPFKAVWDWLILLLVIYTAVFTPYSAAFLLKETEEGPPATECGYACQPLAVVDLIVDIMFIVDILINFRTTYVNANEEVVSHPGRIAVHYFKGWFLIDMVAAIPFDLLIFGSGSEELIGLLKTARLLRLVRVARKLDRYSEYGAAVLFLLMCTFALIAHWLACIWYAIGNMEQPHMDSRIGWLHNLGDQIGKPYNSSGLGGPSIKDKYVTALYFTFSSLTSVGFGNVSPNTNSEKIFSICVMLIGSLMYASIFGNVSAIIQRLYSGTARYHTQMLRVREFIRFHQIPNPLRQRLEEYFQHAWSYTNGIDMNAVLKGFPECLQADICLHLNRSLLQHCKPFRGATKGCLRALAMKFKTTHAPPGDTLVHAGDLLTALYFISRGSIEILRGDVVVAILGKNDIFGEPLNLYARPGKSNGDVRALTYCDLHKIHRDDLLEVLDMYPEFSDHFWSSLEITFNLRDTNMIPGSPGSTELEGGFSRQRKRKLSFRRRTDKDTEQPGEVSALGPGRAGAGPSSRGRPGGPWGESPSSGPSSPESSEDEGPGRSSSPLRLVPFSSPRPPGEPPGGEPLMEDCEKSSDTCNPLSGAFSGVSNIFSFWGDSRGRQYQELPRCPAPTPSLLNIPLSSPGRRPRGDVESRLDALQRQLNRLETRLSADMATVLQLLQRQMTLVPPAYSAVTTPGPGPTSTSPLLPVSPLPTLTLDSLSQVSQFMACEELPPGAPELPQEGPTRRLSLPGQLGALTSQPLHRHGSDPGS
Sequence of CYP2C9 (P11712 whole entry): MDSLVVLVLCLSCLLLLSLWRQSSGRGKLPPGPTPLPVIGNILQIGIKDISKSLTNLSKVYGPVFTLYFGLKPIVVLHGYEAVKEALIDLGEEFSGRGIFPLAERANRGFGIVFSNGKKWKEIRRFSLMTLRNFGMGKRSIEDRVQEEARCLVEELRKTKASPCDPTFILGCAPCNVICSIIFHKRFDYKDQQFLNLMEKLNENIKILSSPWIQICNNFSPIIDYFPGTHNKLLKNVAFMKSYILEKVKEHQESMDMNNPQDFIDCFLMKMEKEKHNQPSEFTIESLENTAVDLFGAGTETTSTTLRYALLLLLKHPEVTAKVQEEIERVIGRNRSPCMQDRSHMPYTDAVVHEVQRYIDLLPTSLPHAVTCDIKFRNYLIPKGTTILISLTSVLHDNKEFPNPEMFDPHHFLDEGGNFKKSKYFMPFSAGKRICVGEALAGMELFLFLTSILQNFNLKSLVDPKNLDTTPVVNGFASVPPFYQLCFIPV
Sequence of CYP2C19 (P33261 whole entry): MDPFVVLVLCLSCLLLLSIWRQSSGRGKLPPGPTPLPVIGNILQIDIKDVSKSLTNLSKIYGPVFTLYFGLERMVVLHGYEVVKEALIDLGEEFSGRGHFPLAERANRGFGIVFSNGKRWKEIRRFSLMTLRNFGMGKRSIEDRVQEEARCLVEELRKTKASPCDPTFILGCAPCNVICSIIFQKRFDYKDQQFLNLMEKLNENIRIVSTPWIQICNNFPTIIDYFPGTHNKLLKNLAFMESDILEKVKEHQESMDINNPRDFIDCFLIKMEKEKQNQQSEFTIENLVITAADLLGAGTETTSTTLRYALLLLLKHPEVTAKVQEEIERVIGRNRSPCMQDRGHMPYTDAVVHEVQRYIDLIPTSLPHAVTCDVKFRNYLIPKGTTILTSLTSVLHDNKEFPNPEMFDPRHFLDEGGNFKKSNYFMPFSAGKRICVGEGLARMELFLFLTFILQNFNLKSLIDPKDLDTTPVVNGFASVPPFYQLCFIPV

Row | Papp (in vitro [1]) | Papp (in vitro [5]) | SMILES | other results
1 | 3.6 ± 0.1 ×10⁻⁶ cm/s |  | CC1=C(C(=O)Nc2ccc(Cl)cc2)C(c2ccccc2)NC(=S)N1 (stereo not shown) [CT1] | 
2 | 7.1 ± 0.1 ×10⁻⁶ cm/s |  | CC1=C(C(=O)Nc2ccc(Cl)cc2)C(c2ccc(Cl)cc2)NC(=S)N1 (stereo not shown) [CT2] | 
3 | 3.4 ± 0.3 ×10⁻⁶ cm/s |  | COc1ccc(C2NC(=S)NC(C)=C2C(=O)Nc2ccc(Cl)cc2)cc1 (stereo not shown) [CT3] | 
4 | 4.6 ± 0.2 ×10⁻⁶ cm/s |  | CC1=C(C(=O)Nc2ccc(Cl)cc2)C(c2ccc(C)cc2)NC(=S)N1 (stereo not shown) [CT4] | 
5 | 7.6 ± 1 ×10⁻⁶ cm/s |  | CC1=C(C(=O)Nc2ccc(Cl)cc2)C(c2ccc(Cl)c(Cl)c2)NC(=S)N1 (stereo not shown) [CT5] | 
6 | 9.5 ± 0.2 ×10⁻⁶ cm/s |  | CC1=C(C(=O)Nc2ccc(Cl)cc2)C(c2ccccc2)NC(=O)N1 (stereo not shown) [CU1] | 
7 | 7.7 ± 0.2 ×10⁻⁶ cm/s |  | CC1=C(C(=O)Nc2ccc(Cl)cc2)C(c2ccc(Cl)cc2)NC(=O)N1 (stereo not shown) [CU2] | 
8 | 5.9 ± 0.2 ×10⁻⁶ cm/s |  | COc1ccc(C2NC(=O)NC(C)=C2C(=O)Nc2ccc(Cl)cc2)cc1 (stereo not shown) [CU3] | 
9 | 5.3 ± 0.2 ×10⁻⁶ cm/s |  | CC1=C(C(=O)Nc2ccc(Cl)cc2)C(c2ccc(C)cc2)NC(=O)N1 (stereo not shown) [CU4] | 
10 | 13.6 ± 0.5 ×10⁻⁶ cm/s |  | CC1=C(C(=O)Nc2ccc(Cl)cc2)C(c2ccc(Cl)c(Cl)c2)NC(=O)N1 (stereo not shown) [CU5] | 
11 |  | 12.2 ± 0.7 ×10⁻⁶ cm/s | CCOC(=O)C1=C(C)NC(=S)NC1c1ccc(Cl)cc1 (stereo not shown) [T2] | remaining at 1 h (in vitro [2]): 77.7%; IC50 (hERG): > 10 µM; microsomal CLint (in vitro [3]): 7.8 µL/min/mg; half-life (in vitro [4]): 2.36 h
12 |  |  | CCOC(=O)C1=C(C)NC(=S)NC1c1ccc(OC)cc1 (stereo not shown) [T3, Ethyl 4-(4-methoxyphenyl)-6-methyl-2-thioxo-1,2,3,4-tetrahydropyrimidine-5-carboxylate] | inhibition at 1 µM (CYP1A2): -13.3 ± 2%; inhibition at 1 µM (CYP2C19): 11.7 ± 4.5%; inhibition at 1 µM (CYP2C9): 3.7 ± 1.1%; inhibition at 1 µM (CYP2D6): -3.2 ± 0.2%
13 |  | 8.1 ± 0.5 ×10⁻⁶ cm/s | CCOC(=O)C1=C(C)NC(=S)NC1c1ccc(OC)cc1 (stereo not shown) [T3] | IC50 (hERG): > 10 µM
14 |  | 10.3 ± 0.3 ×10⁻⁶ cm/s | CCOC(=O)C1=C(C)NC(=S)NC1c1ccc(C)cc1 (stereo not shown) [T4] | 
15 |  | 16.2 ± 0.5 ×10⁻⁶ cm/s | CCOC(=O)C1=C(C)NC(=S)NC1c1ccc(Cl)c(Cl)c1 (stereo not shown) [T5] | 
16 |  | > 30 ×10⁻⁶ cm/s | CCOC(=O)C1=C(C)NC(=S)NC1c1ccc(C(F)(F)F)cc1 (stereo not shown) [T6] | 
17 |  |  | CCOC(=O)C1=C(C)NC(=S)NC1c1ccccc1Cl (stereo not shown) [T9, Ethyl 4-(2-chlorophenyl)-6-methyl-2-thioxo-1,2,3,4-tetrahydropyrimidine-5-carboxylate] | remaining at 1 h (in vitro [2]): 82.4%; microsomal CLint (in vitro [3]): 3 µL/min/mg; half-life (in vitro [4]): 3.69 h
18 |  | 0.1 ×10⁻⁶ cm/s | CCOC(=O)C1=C(C)NC(=S)NC1c1ccc(OCC)cc1 (stereo not shown) [T10] | 
19 |  | 17.7 ± 0.9 ×10⁻⁶ cm/s | CCOC(=O)C1=C(C)NC(=S)NC1c1cccc(O)c1 (stereo not shown) [T12] | 
20 |  | 18.4 ± 1.6 ×10⁻⁶ cm/s | CCOC(=O)C1=C(C)NC(=S)NC1c1ccc(F)cc1 (stereo not shown) [T13] | 
21 |  | 3.5 ± 0.6 ×10⁻⁶ cm/s | COC(=O)C1=C(C)NC(=S)NC1c1cccc(OC)c1 (stereo not shown) [T14] | 
22 |  | 15.8 ± 0.5 ×10⁻⁶ cm/s | CCOC(=O)C1=C(C)NC(=O)NC1c1ccc(Cl)c(Cl)c1 (stereo not shown) [U5] | 
23 |  | 11.5 ± 0.4 ×10⁻⁶ cm/s | CCOC(=O)C1=C(C)NC(=O)NC1c1ccc(C(F)(F)F)cc1 (stereo not shown) [U6] | 
24 |  | 15.3 ± 1 ×10⁻⁶ cm/s | CCOC(=O)C1=C(C)NC(=O)NC1c1ccc(Cl)cc1Cl (stereo not shown) [U7] | 
25 |  | 2 ± 0.2 ×10⁻⁶ cm/s | COC(=O)C1=C(C)NC(=O)NC1c1cccc(Br)c1 (stereo not shown) [U12] | 
26 |  | 0.003 ± 0.001 ×10⁻⁶ cm/s | CCOC(=O)C1=C(C)NC(=O)NC1c1cccc(O)c1 (stereo not shown) [U13] | 
27 |  |  | CCOC(=O)C1=C(C)NC(=O)NC1c1ccc(F)cc1 (stereo not shown) [U14, Ethyl 4-(4-fluorophenyl)-6-methyl-2-oxo-1,2,3,4-tetrahydropyrimidine-5-carboxylate] | remaining at 1 h (in vitro [2]): 74.1%; microsomal CLint (in vitro [3]): 5.4 µL/min/mg; half-life (in vitro [4]): 2.47 h
28 |  | 6.2 ± 0.3 ×10⁻⁶ cm/s | CCOC(=O)C1=C(C)NC(=O)NC1c1ccc(F)cc1 (stereo not shown) [U14] | 
29 |  |  | COC(=O)C1=C(C)NC(=O)NC1c1ccccc1 (stereo not shown) [U15, Methyl 6-methyl-2-oxo-4-phenyl-1,2,3,4-tetrahydropyrimidine-5-carboxylate] | remaining at 1 h (in vitro [2]): 93%; microsomal CLint (in vitro [3]): 1.2 µL/min/mg; half-life (in vitro [4]): 10.7 h
